Results on one compound are retold here after paper PMC4657239, “BluB/CobT2 fusion enzyme activity reveals mechanisms responsible for production of active form of vitamin B12 by Propionibacterium freudenreichii” (Microbial Cell Factories, 2015).

For this experiment, the target named is T1, BluB/CobT2 (Propionibacterium freudenreichii, UniProt D7GJ95).
T1 construct: E. coli KRX, pFN18A; HaloTag removed by HaloTEV; N-terminal SDNA replaces initial Met
The experiment can be described thus: LC-ESI-MS of alpha-ribazole phosphate formed. Format: biochemical. Conditions: 200 µM NaMN, 100 µM DMBI, 1 mM DTT, Tris-HCl pH 8.5, room temperature; CobT activity.

Molecules are shown by their SMILES.

T1 sequence (D7GJ95 entry or part of it): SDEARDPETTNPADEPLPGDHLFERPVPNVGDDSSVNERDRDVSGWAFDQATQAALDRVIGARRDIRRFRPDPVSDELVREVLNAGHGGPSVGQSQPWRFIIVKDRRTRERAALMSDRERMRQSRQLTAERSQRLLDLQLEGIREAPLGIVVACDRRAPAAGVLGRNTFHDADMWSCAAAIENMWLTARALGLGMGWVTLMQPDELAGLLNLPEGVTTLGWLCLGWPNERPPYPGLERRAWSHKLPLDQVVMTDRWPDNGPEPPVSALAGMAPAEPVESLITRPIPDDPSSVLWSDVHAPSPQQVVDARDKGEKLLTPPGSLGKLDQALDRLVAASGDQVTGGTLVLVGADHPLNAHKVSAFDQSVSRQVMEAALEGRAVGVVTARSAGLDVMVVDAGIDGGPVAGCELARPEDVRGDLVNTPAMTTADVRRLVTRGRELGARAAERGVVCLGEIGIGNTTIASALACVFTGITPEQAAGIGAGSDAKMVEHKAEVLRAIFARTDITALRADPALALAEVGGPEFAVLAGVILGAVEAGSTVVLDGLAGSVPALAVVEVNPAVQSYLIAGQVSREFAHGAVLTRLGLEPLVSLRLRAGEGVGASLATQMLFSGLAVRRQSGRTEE

As to `O=C([O-])c1ccc[n+]([C@@H]2O[C@H](COP(=O)(O)O)[C@@H](O)[C@H]2O)c1` [NaMN], the “LC-ESI-MS of alpha-ribazole phosphate formed” value is on record as “confirms that NaMN is the preferred substrate”.
